# Legend:
# C. albicans ATCC 90028 = assay: Broth dilution IC50 determination; type: cell-based; conditions: Candida albicans, ATCC90028, SD broth, 37°C, 24 h, OD 600 nm, read-out: Anti-Candida Activity (IC50± S.D.) C. albicans ATCC90028
# Method: (§1) Broth dilution technique was employed to determine the IC50 values of all the synthesized 1,2,3 triazole derivatives (3a-c) against C. albicans ATCC 90028, C. glabrata ATCC 90030, C. tropicalis ATCC 750 and four clinical isolates of C. albicans namely D27, D31, D39 (FLC-sensitive) and D15.9 (FLC-resistant). The strains were maintained on yeast extract:peptone:dextrose ([…]) nutrient agar (2.5%) slants at 4°C. The test compounds were dissolved in DMSO with less than 4% concentration of it in the final test volume. Different concentrations (1000… 7.8 μg/mL) of test compounds in Sabouraud dextrose (SD) broth medium were dispensed into the wells, then inoculated with the test organism with approx. 2.5 × 10^3 cells/mL and incubated at 37°C for 24 h. After incubation period, the optical density was measured at 600 nm by using Thermo Scientific Multiskan Go plate reader. […] All the experiments were done in triplicate at separate times.
# [1] = test system: C. albicans D27 (FLC-sensitive clinical isolate); assay: Broth dilution IC50 determination; type: cell-based; conditions: Candida albicans, 24 h; read-out: Anti-Candida Activity (IC50± S.D.) C. albicans D27
# Method: as §1
# [2] = test system: C. albicans D39 (FLC-sensitive clinical isolate); assay: Broth dilution IC50 determination; type: cell-based; conditions: Candida albicans, 24 h; read-out: Anti-Candida Activity (IC50± S.D.) C. albicans D39
# Method: as §1
# [3] = test system: C. albicans ATCC 90028, C. albicans D27 (FLC-susceptible) and C. albicans D15.9 (FLC-resistant); assay: Time kill curve study, three strains; type: cell-based; conditions: for Fungicidal or fungistatic nature: time kill curves, at 2MIC
# Method: Time-kill curves were used for testing the fungicidal or fungistatic nature of the lead inhibitors 3a and 3b. The experimental procedure was performed according to the method reported by Wang et al.. C. albicans ATCC 90028, C. albicans D27 (FLC-susceptible) and C. albicans D15.9 (FLC-resistant) strains were used as test organisms. Fluconazole was used as a positive control. Freshly prepared sterile YEPD medium was inoculated by fresh culture (approx. 2×10^3 cells) of test organisms in different conical flasks. The cells were exposed to the test compounds at 2MIC, MIC and MIC/2 values, separately. All the conical flasks having different sets of test compounds and concentrations were incubated at 37°C and 160 rpm. At predetermined time points (0, 4, 12, 24, and 48 h after incubation with agitation at 37°C), a 100-μL aliquot was removed from every solution and appropriately diluted in sterile water. A 100-μl aliquot from each dilution was spread over the YEPD agar plate. Colony counts were determined after incubation at 37°C for 24 h. All the time-kill curve experiments were conducted in duplicate and mean colony count data (log10 CFU/mL) were plotted as a function of time for each strain.
# proteinase secretion = assay: Proteinase assay (BSA agar, Pz value); type: cell-based, C. albicans D27 (FLC-susceptible); conditions: at MIC, 1 h exposure
# Method: Following incubation, 1.5 mL of the yeast culture was taken into micro centrifuge tubes and centrifuged at 3000 rpm, for 5 min. The pellet obtained was washed by phosphate buffer saline (PBS) twice to remove the residual medium. […] Volumes of 1μL were placed at equidistant points on proteinase agar medium (0.1% yeast nitrogen base w/o amino acids; 0.145% ammonium sulfate; 2% glucose with 0.2% (w/v) BSA fraction V mixed into agar at ∼40°C) and incubated at 37°C for 3 days. The experiment was performed in duplicate. Secreted proteinase enzyme will degrade BSA and form zone of clearance around the yeast colonies. An index (Pz value) was used to represent the extent of proteinase activity by different strains of C. albicans. A Pz value of 1.0 depicts no enzyme activity. It was calculated as follows: Pzvalue=diameterofcolony/diameterofcolony+diameterofzoneofdegradation
# phospholipase secretion = assay: Phospholipase assay (egg yolk agar, Pz value); type: cell-based, C. albicans D15.9 (FLC-resistant)
# Method: Phospholipase activity was performed using the method of Price et al. (1982) with minor modifications. The cells were incubated at 37°C for 18 h and then centrifuged at 3000 rpm for 5 min. The pellet obtained was washed with PBS twice to remove the residual culture medium. […] Volumes of 1 μL were placed at equidistant points on phospholipase agar media plates (1% peptone; 3% glucose; 5.73% NaCl; 0.055% CaCl2 with 10% (v/v) egg yolk emulsion) and incubated at 37°C for 4 days. The secretion of phospholipases was determined by the formation of opaque zones due to precipitation around the yeast colonies. The assay was conducted in duplicate. Pz values were calculated as follows: Pzvalue=diameterofcolony/diameterofcolony+diameterofzoneofprecipitaion
# [4] = target: T1, plasma membrane H+ ATPase (Candida albicans, UniProt P28877); assay: Measurement of intracellular pH (pHi); type: cell-based, C. albicans D15.9 (FLC-resistant); conditions: 100 μg/mL; untreated 6.4
# T1 construct: endogenous in cells; host or cells: C. albicans ATCC 90028; clinical isolates C. albicans D27 (FLC-susceptible) and D15.9 (FLC-resistant); mid-log phase whole cells
# Method: In yeast cells, plasma membrane H^+-ATPase helps to maintain internal pH between 6.0 and 7.5. Intracellular pH (pHi) was measured as reported earlier by Manzoor et al.. Mid-log phase cells were harvested from SD medium and washed thrice with PBS. Subsequently, cells (0.1 g) were suspended in 5 mL solution of 0.1 M KCl, and 0.1 mM CaCl2 in distilled water. Compounds 3a and 3b were added to the suspension at a desired concentration of 100 μg/mL. […] Initial pH of the suspension was adjusted to 7.0 in each case and incubated for 30 min at 37°C with constant stirring. After incubation, the pH of suspension was again adjusted to 7.0 followed by the addition of nystatin (20 μM) and incubation at 37°C for 1 h. The change in pH of the suspension was monitored on a pH meter with constant stirring. The value of external pH at which nystatin permeabilization induced no further shift was taken as an estimate of pHi.
# T1 sequence (P28877 whole entry): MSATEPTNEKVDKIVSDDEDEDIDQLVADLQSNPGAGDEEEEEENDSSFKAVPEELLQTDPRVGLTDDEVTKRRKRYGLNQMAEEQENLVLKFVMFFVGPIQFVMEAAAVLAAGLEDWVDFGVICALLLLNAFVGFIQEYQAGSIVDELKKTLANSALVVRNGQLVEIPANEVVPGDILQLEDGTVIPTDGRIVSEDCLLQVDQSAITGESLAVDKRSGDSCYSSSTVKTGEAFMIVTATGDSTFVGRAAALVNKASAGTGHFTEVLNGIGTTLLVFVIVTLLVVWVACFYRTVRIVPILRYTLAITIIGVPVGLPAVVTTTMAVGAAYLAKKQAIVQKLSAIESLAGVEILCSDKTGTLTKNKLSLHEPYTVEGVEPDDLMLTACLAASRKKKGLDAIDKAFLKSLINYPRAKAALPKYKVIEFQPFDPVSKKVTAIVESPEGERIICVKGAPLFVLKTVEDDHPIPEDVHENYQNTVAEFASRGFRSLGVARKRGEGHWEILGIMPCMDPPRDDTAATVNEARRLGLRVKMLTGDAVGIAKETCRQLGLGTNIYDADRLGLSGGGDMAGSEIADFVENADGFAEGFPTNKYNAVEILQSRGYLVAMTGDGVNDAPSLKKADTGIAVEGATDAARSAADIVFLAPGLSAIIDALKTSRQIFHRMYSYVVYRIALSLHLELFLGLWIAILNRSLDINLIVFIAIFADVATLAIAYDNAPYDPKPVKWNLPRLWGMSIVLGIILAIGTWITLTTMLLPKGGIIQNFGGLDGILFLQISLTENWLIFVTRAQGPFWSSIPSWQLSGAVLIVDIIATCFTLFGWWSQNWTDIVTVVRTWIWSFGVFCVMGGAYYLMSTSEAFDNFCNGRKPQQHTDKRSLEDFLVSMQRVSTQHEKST
SMILES,IC50 (C. albicans ATCC 90028),IC50 [1],IC50 [2],"Change in CFU/mL ([3]; 2MIC, after 48 h, all three test strains)",Fungicidal or fungistatic nature [3],Decrease of proteinase secretion (proteinase secretion),"Decrease of phospholipase secretion (phospholipase secretion; at MIC, 1 h exposure)","Decrease of phospholipase secretion (phospholipase secretion; at MIC/4, 1 h exposure)",Intracellular pH (pHi) [4],Change in CFU/mL with time interval ([3]; dose dependent)
c1ccc(Cn2cc(COc3cccc4cccnc34)nn2)cc1 [Compound 3a],0.044 ± 0.11 µg/mL,1.9 ± 0.09 µg/mL,4.1 ± 0.02 µg/mL,significant decrease in CFU/mL,fungicidal,30%,34%,25%,5.4,
"Clc1ccc(OCc2cn(Cc3ccccc3)nn2)c2ncccc12 [Compound 3b, 8-((1-Benzyl-1H-1,2,3-triazol-4-yl)methoxy)-5-chloroquinoline]",25.4 ± 0.76 µg/mL,33.7 ± 1.51 µg/mL,47.1 ± 0.39 µg/mL,,fungistatic,22%,30%,25%,4.7,only slight increase in CFU/mL
